Measurements from paper PMC9204419, “A Toolbox for the Generation of Chemical Probes for Baculovirus IAP Repeat Containing Proteins” (Frontiers in Cell and Developmental Biology, 2022).
Where two headings read alike, the source gives them in different places. Starred links: 1 amine or outer side, 2 acyl side, 3 side chain; linkers in the order of their positions; H or OH if unused. Positions of bridges follow the written chain, without caps; N, C: chain ends. Non-standard residues stand in square brackets, D forms with d. Residues, ends and D or L forms follow the SMILES beside them. Chains are numbered I, II in the order given. Hexamethylenediamine = C(CCCN[*:2])CCN[*:1]; Dip = N[C@H](C(=O)O)C(c1ccccc1)c1ccccc1; Chg = N[C@H](C(=O)O)C1CCCCC1; NMeA = CN[C@@H](C)C(=O)O

Assays:
BIRC2-BIR3 domain [1] = molecular target: T1, BIRC2-BIR3 domain (Homo sapiens, UniProt Q13490); assay: Fluorescence polarization (FP) competition assay with fluorescent SMAC probe; type: binding; design: BIRC2-BIR3 domain (260–352) was expressed; His6 (N, cleaved yes); GST (N, cleaved yes); made in house; host or cells: E. coli; conditions: read-out: FP Assay K I Values
Method: Resulting data was plotted using GraphPad Prism 9.3 software and analyzed using a nonlinear fit to calculate the probe IC50. […] Compounds were titrated from 20 μM to 20 nM using an ECHO 550 acoustic dispenser (Labcyte) incubated for 1 h at room temperature and subsequent read out.
The assay is based on the displacement of a fluorescent SMAC mimetic from the binding site.

BIRC2 BIR2 = BIRC2 BIR2 (Homo sapiens, UniProt Q13490); assay: NanoBRET cellular target engagement, single domain BIRC2 BIR2
Method: (§1) In brief: Constructs contained the cDNA of full-length or single domains cloned in frame with an N-terminal NanoLuc-fusion as specified in Supplementary Table S2. Plasmids were transfected into HEK293T cells using FuGENE HD (Promega, E2312) and proteins were allowed to express for 20 h. […] The corresponding transfected cells were added and reseeded at a density of 2.5^5 cells/mL after trypsinization and resuspending in Opti-MEM without phenol red (Life Technologies). […] Competitive displacement data were then graphed using GraphPad Prism 9.3 software using a normalized 3-parameter curve fit with the following equation: Y = 100/(1 + 10^(X-LogIC50)).

BIRC8 BIR = molecular target: T2, BIRC8 BIR (Homo sapiens, UniProt Q96P09); assay: NanoBRET cellular target engagement, single domain BIRC8 BIR
T2 sequence (Q96P09 1-90): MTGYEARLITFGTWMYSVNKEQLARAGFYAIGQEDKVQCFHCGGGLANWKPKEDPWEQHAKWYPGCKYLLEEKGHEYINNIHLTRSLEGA
Method: as §1

BIRC7 = molecular target: T3, BIRC7 (Homo sapiens, UniProt Q96CA5); assay: NanoBRET cellular target engagement, full-length BIRC7
T3 sequence (Q96CA5 1-298): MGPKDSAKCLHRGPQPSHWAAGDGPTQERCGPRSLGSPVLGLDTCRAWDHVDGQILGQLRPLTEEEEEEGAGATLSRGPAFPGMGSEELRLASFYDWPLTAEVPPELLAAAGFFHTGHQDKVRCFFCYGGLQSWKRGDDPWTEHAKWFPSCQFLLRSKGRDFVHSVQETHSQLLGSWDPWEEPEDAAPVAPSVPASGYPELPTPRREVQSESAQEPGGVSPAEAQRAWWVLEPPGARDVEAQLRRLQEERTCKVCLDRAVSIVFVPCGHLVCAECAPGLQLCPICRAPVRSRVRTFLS
Method: as §1

BIRC2-BIR3 domain [2] = molecular target: T1, BIRC2-BIR3 domain; assay: Isothermal titration calorimetry (ITC); type: binding; design: BIRC2-BIR3 domain (260–352) was expressed; His6 (N, cleaved yes); GST (N, cleaved yes); made in house; host or cells: E. coli; conditions: 25°C; for Kd: duplicates, mean ± SD, read-out: K D Measured in ITC
Method: For this protocol, the chamber was pre-equilibrated with the test compound, and the BIRC2-BIR3 domain was titrated in while continuously measuring the rate of exothermic heat evolution. The heat of binding was integrated, corrected, and fitted to an independent single-binding site model based on the manufacturer’s instructions, from which thermodynamic parameters (ΔH and TΔS), equilibrium association and dissociation constants (K A and K D, respectively), and stoichiometry (n) were calculated.

BIRC8 = molecular target: T4, BIRC8 (Homo sapiens, UniProt Q96P09); assay: NanoBRET cellular target engagement, full-length BIRC8
T4 sequence (Q96P09 1-236): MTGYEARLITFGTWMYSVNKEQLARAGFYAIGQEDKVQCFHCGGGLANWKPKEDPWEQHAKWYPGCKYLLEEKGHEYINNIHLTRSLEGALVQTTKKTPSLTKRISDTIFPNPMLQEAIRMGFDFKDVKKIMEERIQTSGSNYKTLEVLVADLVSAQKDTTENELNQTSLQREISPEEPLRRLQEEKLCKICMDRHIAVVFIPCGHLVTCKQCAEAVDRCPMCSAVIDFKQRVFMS
Method: as §1

BIRC2-BIR3 domain [3] = molecular target: T1, BIRC2-BIR3 domain; assay: Differential scanning fluorimetry (DSF); conditions: for ΔTm [°C] (Supplementary Table S1): technical replicate
Method: Purified proteins were buffered in DSF buffer (25 mM HEPES pH 7.5, 500 mM NaCl) and were assayed in a 384-well plate (Thermo, #BC3384) with a final protein concentration of 20 μM in 10 μL final assay volume. Inhibitors were added in excess to a final concentration of 40 μM, using an ECHO 550 acoustic dispenser (Labcyte). As a fluorescent probe, SYPRO-Orange (Molecular Probes) was used at 5x final concentration. […] Data was analyzed using Boltzmann-equation in the Protein Thermal Shift software (Applied Biosystems). Samples were measured in technical triplicates.
The assay was run in the presence of DMSO to exclude DMSO influences towards melting temperature differences when testing small molecules (Figures 2C,D).

BIRC2-BIR3 domain [4] = molecular target: T1, BIRC2-BIR3 domain; design: BIRC2-BIR3 domain (260–352) was expressed; His6 (N, cleaved yes); GST (N, cleaved yes); made in house; host or cells: E. coli; conditions: read-out: Literature FP Assay K I Values, cited from earlier work
BIRC3 = BIRC3 (Homo sapiens, UniProt Q13489); assay: NanoBRET cellular target engagement, full-length BIRC3
Method: as §1

BIRC2 BIR3 = BIRC2 BIR3 (Homo sapiens, UniProt Q13490); assay: NanoBRET cellular target engagement, single domain BIRC2 BIR3
BIRC3 BIR2 = BIRC3 BIR2 (Homo sapiens, UniProt Q13489); assay: NanoBRET cellular target engagement, single domain BIRC3 BIR2
BIRC2 = BIRC2 (Homo sapiens, UniProt Q13490); assay: NanoBRET cellular target engagement, full-length BIRC2
Method: as §1

BIRC7 BIR = molecular target: T5, BIRC7 BIR (Homo sapiens, UniProt Q96CA5); assay: NanoBRET cellular target engagement, single domain BIRC7 BIR
T5 sequence (Q96CA5 70-176): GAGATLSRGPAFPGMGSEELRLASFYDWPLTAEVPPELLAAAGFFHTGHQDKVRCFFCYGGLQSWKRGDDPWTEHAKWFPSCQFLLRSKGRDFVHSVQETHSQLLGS
Method: as §1

BIRC4 = BIRC4 (Homo sapiens, UniProt P98170); assay: NanoBRET cellular target engagement, full-length BIRC4
Method: as §1

BIRC3 BIR3 = BIRC3 BIR3 (Homo sapiens, UniProt Q13489); assay: NanoBRET cellular target engagement, single domain BIRC3 BIR3
Method: as §1

BIRC1 BIR[2] = molecular target: T6, BIRC1 BIR[2] (Homo sapiens, UniProt Q13075); assay: NanoBRET cellular target engagement, single domain BIRC1 BIR[2]
T6 sequence (Q13075 139-251): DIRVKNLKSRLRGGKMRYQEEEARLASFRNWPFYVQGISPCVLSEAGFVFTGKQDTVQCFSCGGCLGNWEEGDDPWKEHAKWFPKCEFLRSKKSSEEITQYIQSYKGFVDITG
Method: as §1

[5] = molecular target: T7, BIRC2-BIR3 domain (260-352) (human, UniProt Q13490 260-352); assay: fluorescence polarisation; BIRC2-BIR3 titrated from 40 uM to 600 pM into 30 nM FAM-labelled SMAC probe; 50 mM HEPES pH 7.5, 150 mM NaCl, 5% glycerol, 1 mM TCEP, 0.05% TWEEN20; 1 h at room temperature; conditions: both partners purified
T7 construct: BIR3 domain of human BIRC2 (cIAP1), residues 260-352; The expression tag was cleaved with TEV protease; also called BIR3 domain of BIRC2; not shown: His6, N-terminal, cleaved; GST, N-terminal, cleaved
T7 sequence (Q13490 260-352): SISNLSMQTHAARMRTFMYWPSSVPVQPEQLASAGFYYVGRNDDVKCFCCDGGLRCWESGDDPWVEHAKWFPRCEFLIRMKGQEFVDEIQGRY

T1 sequence (Q13490 260-352): as above
Chain of BIRC2 BIR2 (Q13490 165-267): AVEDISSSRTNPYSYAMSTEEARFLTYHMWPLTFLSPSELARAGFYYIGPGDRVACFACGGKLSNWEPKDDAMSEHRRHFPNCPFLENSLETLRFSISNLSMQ
Chain of BIRC2 (Q13490 whole entry, the tested form may be a part): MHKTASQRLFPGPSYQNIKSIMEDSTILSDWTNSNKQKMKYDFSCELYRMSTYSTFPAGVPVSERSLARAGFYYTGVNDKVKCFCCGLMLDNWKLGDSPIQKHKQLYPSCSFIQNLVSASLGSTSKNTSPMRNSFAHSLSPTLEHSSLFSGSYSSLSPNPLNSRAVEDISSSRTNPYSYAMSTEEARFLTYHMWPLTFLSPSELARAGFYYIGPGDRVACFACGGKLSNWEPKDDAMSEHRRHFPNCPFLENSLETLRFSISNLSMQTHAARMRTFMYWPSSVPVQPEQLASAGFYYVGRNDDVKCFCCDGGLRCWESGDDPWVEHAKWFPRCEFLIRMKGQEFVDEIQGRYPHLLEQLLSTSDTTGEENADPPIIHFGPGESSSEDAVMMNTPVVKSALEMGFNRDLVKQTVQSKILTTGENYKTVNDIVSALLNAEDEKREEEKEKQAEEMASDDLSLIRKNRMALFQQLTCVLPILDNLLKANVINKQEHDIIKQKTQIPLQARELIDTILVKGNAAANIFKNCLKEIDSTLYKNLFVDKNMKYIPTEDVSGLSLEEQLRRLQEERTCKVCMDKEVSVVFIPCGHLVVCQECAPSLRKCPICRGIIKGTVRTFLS
Chain of BIRC3 BIR2 (Q13489 147-253): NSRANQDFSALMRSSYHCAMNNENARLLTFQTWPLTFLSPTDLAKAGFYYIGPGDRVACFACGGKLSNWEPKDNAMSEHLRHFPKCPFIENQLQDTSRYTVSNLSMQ
Chain of BIRC2 BIR3 (Q13490 251-372): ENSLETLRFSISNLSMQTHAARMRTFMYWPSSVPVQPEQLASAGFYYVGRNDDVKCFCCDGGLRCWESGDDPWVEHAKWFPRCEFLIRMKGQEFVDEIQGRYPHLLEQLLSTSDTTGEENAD
Chain of BIRC3 (Q13489 whole entry, the tested form may be a part): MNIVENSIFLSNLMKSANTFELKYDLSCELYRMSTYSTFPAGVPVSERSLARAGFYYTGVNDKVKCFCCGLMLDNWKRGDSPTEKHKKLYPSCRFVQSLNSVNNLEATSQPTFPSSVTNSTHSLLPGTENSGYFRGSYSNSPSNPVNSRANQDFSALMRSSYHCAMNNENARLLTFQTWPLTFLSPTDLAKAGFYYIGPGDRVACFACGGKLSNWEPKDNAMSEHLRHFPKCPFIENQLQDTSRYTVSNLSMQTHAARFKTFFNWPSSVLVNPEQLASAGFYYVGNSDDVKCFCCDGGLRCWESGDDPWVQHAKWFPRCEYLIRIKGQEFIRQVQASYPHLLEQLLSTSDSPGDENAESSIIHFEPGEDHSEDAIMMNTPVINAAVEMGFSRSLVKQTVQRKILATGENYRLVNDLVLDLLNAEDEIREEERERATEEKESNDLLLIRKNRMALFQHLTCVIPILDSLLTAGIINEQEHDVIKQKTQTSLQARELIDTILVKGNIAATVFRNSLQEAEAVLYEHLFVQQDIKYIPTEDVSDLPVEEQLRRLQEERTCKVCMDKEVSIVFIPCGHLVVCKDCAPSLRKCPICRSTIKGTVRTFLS
Chain of BIRC3 BIR3 (Q13489 236-360): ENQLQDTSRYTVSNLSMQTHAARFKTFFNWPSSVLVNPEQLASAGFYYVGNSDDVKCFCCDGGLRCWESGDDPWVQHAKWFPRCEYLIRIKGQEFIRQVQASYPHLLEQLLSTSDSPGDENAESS
Chain of BIRC4 (P98170 whole entry, the tested form may be a part): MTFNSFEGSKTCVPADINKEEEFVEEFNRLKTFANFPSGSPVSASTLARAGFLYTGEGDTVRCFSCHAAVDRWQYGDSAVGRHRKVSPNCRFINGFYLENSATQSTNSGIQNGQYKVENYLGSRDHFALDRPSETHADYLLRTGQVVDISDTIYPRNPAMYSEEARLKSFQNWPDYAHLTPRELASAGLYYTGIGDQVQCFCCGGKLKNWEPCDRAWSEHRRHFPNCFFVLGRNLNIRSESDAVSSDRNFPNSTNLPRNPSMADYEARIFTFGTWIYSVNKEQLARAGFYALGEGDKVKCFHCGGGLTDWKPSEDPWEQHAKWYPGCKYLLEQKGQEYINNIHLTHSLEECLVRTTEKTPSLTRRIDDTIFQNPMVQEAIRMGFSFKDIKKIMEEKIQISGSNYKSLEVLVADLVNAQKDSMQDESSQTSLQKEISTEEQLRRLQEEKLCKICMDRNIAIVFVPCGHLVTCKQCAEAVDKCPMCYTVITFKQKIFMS

In the case of `CN[C@@H](C)C(=O)N[C@H](C(=O)N1CCC[C@H]1C(=O)N[C@H](C(=O)NCCCCCCNC(=O)[C@@H](NC(=O)[C@@H]1CCCN1C(=O)[C@@H](NC(=O)[C@H](C)NC)C1CCCCC1)C(c1ccccc1)c1ccccc1)C(c1ccccc1)c1ccccc1)C1CCCCC1` [BV-6] (I: H-[NMeA][Chg]P[Dip] / II: H-[NMeA][Chg]P[Dip]; linker I:C-II:C via Hexamethylenediamine), the Ki (BIRC2-BIR3 domain [1]; BIRC2 BIR3 domain, Cheng-Prusoff from IC50, mean ± SD, n = 3) is reported as 8.4 ± 0.7 nM, the EC50 (BIRC2 BIR2; read-out: EC50 ± SEM NanoBRET BIRC2 BIR2, single domain, HEK293T, n = 4) is reported as greater than 50000 nM and the “EC50 ± SEM NanoBRET BIRC2 BIR2” value (BIRC2 BIR2; single domain, HEK293T, n = 4) is reported as “did not show any binding”. The EC50 (BIRC8 BIR; read-out: EC50 ± SEM NanoBRET BIRC8 BIR, single domain, HEK293T, n = 4) was 3000 ± 100 nM, the EC50 (BIRC7; read-out: EC50 ± SEM NanoBRET BIRC7, full-length, HEK293T, n = 4) was 2600 ± 800 nM and the “ITC TΔS” value (BIRC2-BIR3 domain [2]) was 6.94 ± 0.1 kcal/mol. For the same molecule, the Kd (BIRC2-BIR3 domain [2]) was 24.8 ± 8.5 nM, the EC50 (BIRC8; read-out: EC50 ± SEM NanoBRET BIRC8, full-length, HEK293T, n = 4) was 2600 ± 200 nM and the “Mean, ΔTm [°C] (Supplementary Table S1)” value (BIRC2-BIR3 domain [3]; mean of n=3, difference to DMSO control) was 9.1 °C. For the same molecule, the “ΔTm [°C] (Supplementary Table S1)” value (BIRC2-BIR3 domain [3]; first column) was 9.1 °C, the “ΔTm [°C] (Supplementary Table S1)” value (BIRC2-BIR3 domain [3]; second column) was 9.1 °C and the “ΔTm [°C] (Supplementary Table S1)” value (BIRC2-BIR3 domain [3]; third column) was 9.1 °C. The Ki (BIRC2-BIR3 domain [4]; ref Varfolomeev et al. (2007)) was 169 nM, the EC50 (BIRC3; read-out: EC50 ± SEM NanoBRET BIRC3, full-length, HEK293T, n = 4) was 800 ± 100 nM and the EC50 (BIRC2 BIR3; read-out: EC50 ± SEM NanoBRET BIRC2 BIR3, single domain, HEK293T, n = 4) was 800 ± 100 nM. It also gave an EC50 (BIRC3 BIR2; read-out: EC50 ± SEM NanoBRET BIRC3 BIR2, single domain, HEK293T, n = 4) of 18000 ± 25200 nM, an EC50 (BIRC2; read-out: EC50 ± SEM NanoBRET BIRC2, full-length, HEK293T, n = 4) of 500 ± 100 nM and an EC50 (BIRC7 BIR; read-out: EC50 ± SEM NanoBRET BIRC7 BIR, single domain, HEK293T, n = 4) of 2700 ± 800 nM. It also gave an EC50 (BIRC4; read-out: EC50 ± SEM NanoBRET BIRC4, full-length, HEK293T, n = 4) of 900 ± 100 nM, an EC50 (BIRC3 BIR3; read-out: EC50 ± SEM NanoBRET BIRC3 BIR3, single domain, HEK293T, n = 4) of 1700 ± 400 nM and an EC50 (BIRC1 BIR[2]; read-out: EC50 ± SEM NanoBRET BIRC1 BIR[2], single domain, HEK293T, n = 4) of 10900 ± 2100 nM.

`CN[C@@H](C)C(=O)N[C@H](C(=O)N1CCC[C@H]1C(=O)N[C@H]1c2ccccc2C[C@H]1OCC#CC#CCO[C@@H]1Cc2ccccc2[C@@H]1NC(=O)[C@@H]1CCCN1C(=O)[C@@H](NC(=O)[C@H](C)NC)C1CCCCC1)C1CCCCC1` [AZD5582] gave a Ki (BIRC2-BIR3 domain [1]) of 2.3 ± 0.3 nM, an EC50 (BIRC2 BIR2) of 171 ± 151 nM and an EC50 (BIRC8 BIR) of 85.5 ± 11.1 nM. For the same molecule, the EC50 (BIRC7) was 8 ± 0.3 nM, the Kd (BIRC2-BIR3 domain [2]) was 41.1 ± 2.9 nM and the EC50 (BIRC8) was 76.3 ± 0.1 nM. For the same molecule, the “melting temperature of BIRC2 BIR3 domain with compound” value (BIRC2-BIR3 domain [3]; native domain ∼74°C) was 92 °C, the ΔTm at 40 µM (BIRC2-BIR3 domain [3]; read-out: DSF Assay ΔTm) was 18 °C and the “ΔTm [°C] (Supplementary Table S1)” value (BIRC2-BIR3 domain [3]; first column) was 18.2 °C. For the same molecule, the “ΔTm [°C] (Supplementary Table S1)” value (BIRC2-BIR3 domain [3]; third column) was 17.9 °C, the Ki (BIRC2-BIR3 domain [4]; calculated from IC50, ref Hennessy et al. (2013)) was 6.4 ± 4.3 nM and the EC50 (BIRC3) was 81.1 ± 14.8 nM. It also gave an EC50 (BIRC2 BIR3) of 23 ± 14.4 nM, an EC50 (BIRC3 BIR2) of 28.5 ± 3.2 nM and an EC50 (BIRC2) of 192 ± 99.3 nM. The EC50 (BIRC7 BIR) was 16.1 ± 6.3 nM, the EC50 (BIRC4) was 79.6 ± 37.5 nM and the EC50 (BIRC3 BIR3) was 4.1 ± 0.1 nM. The EC50 (BIRC1 BIR[2]) was 776 ± 200 nM.

B1: fluorescently labeled SMAC probe (AVPIAQKSEK-K(5-FAM)-NH2) (peptide)
peptide: AVPIAQKSEKK
modifications: 5-FAM on the C-terminal lysine (K(5-FAM)); C-terminal amide (NH2)
notes: two lysines that follow the SMAC stretch; the last one carries 5-FAM; Probably a synthetic peptide; also called fluorescent SMAC mimetic; tracer
B1 showed a Kd [5] of 14.9 nM.
